Assay results reported in ChEMBL document CHEMBL1201862, “PubChem BioAssay data set” (2004).
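Cultured in 96-well plates, cells were exposed to test compound for 48 hours across five concentrations. GI50 marks 50% less growth.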 Calls of active or inactive are those of the source. Rule as the data show it: active = GI50 up to about 1.1 µM and inactive = higher.

Legend:
Assay in all cases: NCI anticancer screen, dose series, 48 h
[1] = test system: UACC-62
[2] = test system: KM12
[3] = test system: SNB-19
[4] = test system: SF-539
[5] = test system: RXF 393
[6] = test system: SW-620
[7] = test system: U-251
[8] = test system: DU-145
[9] = test system: LOX IMVI
[10] = test system: Hs-578T
[11] = test system: OVCAR-8
[12] = test system: SK-MEL-28
[13] = test system: SR
[14] = test system: UACC-257
[15] = test system: PC-3
[16] = test system: SF-295
[17] = test system: ACHN
[18] = test system: NCI-H226
[19] = test system: SNB-75
[20] = test system: SK-OV-3
[21] = test system: HOP-92
[22] = test system: SN12C
[23] = test system: HOP-62
[24] = test system: CCRF-CEM
[25] = test system: OVCAR-5
[26] = test system: T47D
[27] = test system: MDA-N
[28] = test system: CAKI-1
[29] = test system: M14
[30] = test system: 786-0
[31] = test system: HL-60
[32] = test system: OVCAR-4
[33] = test system: COLO 205
[34] = test system: OVCAR-3
[35] = test system: A549
[36] = test system: BT-549
[37] = test system: HCC 2998
[38] = test system: MCF7
[39] = test system: NCI-H23
[40] = test system: RPMI-8226
[41] = test system: K562
[42] = test system: SK-MEL-5
[43] = test system: MOLT-4
[44] = test system: TK-10
[45] = test system: A498
[46] = test system: NCI-H460
[47] = test system: HCT-15
[48] = test system: EKVX
[49] = test system: MDA-MB-231
[50] = test system: UO-31
[51] = test system: NCI/ADR-RES
[52] = test system: MDA-MB-435
[53] = test system: HCT-116
[54] = test system: SF-268
[55] = test system: HT-29
[56] = test system: Malme-3M
[57] = test system: SK-MEL-2
[58] = test system: IGROV-1

Measured: GI50

Cc1cc(C)n(C(=O)CSc2nnc(SCC(=O)n3nc(C)cc3C)s2)n1
inactive: [1] > 100 µM | [2] > 100 µM | [3] > 100 µM | [4] > 100 µM | [5] > 100 µM | [6] > 100 µM | [7] > 100 µM | [8] > 100 µM | [9] > 100 µM | [10] 33.8 µM | [11] > 100 µM | [12] > 100 µM | [13] > 100 µM | [14] > 100 µM | [15] > 100 µM | [16] > 100 µM | [17] > 100 µM | [18] > 100 µM | [19] 40 µM | [20] > 100 µM | [21] > 100 µM | [22] > 100 µM | [23] 80 µM | [24] > 100 µM | [25] > 100 µM | [26] > 100 µM | [27] > 100 µM | [28] > 100 µM | [29] > 100 µM | [30] > 100 µM | [31] > 100 µM | [32] > 100 µM | [33] > 100 µM | [34] 91.8 µM | [35] > 100 µM | [36] > 100 µM | [37] > 100 µM | [38] > 100 µM | [39] > 100 µM | [40] > 100 µM | [41] > 100 µM | [42] > 100 µM | [43] > 100 µM | [44] > 100 µM | [45] > 100 µM | [46] > 100 µM | [48] 25.5 µM | [49] > 100 µM | [50] > 100 µM | [51] > 100 µM | [52] > 100 µM | [53] > 100 µM | [54] > 100 µM
> 100 µM: [47]

CC1CCCc2c(-c3ccc(Cl)cc3)nc(N)c(C#N)c21 (centres undefined)
inactive: [1] 18.9 µM | [2] 20.2 µM | [3] 64.7 µM | [4] 25.5 µM | [5] 27.2 µM | [6] 61.9 µM | [7] 39.9 µM | [8] 39 µM | [9] 24.2 µM | [10] 28.3 µM | [11] 24.6 µM | [12] 34.2 µM | [13] 9.84 µM | [14] 27.7 µM | [15] 21.6 µM | [17] 38.5 µM | [18] 18.4 µM | [19] 11.7 µM | [20] 23.9 µM | [22] 41.4 µM | [23] 19.2 µM | [55] 30.6 µM | [24] 21.1 µM | [25] 43 µM | [26] 2.09 µM | [27] 24 µM | [28] 58.2 µM | [56] 24.4 µM | [29] 30 µM | [30] 42.1 µM | [31] 22.7 µM | [33] 23.2 µM | [34] 29.5 µM | [36] 20.2 µM | [38] 29 µM | [39] 30.4 µM | [40] 13.5 µM | [41] 24 µM | [42] 18.3 µM | [43] 20 µM | [44] 43.7 µM | [45] 28.4 µM | [46] 33.1 µM | [48] 18.5 µM | [57] 18.4 µM | [49] > 100 µM | [50] 21.6 µM | [58] 19.6 µM | [51] 23.2 µM | [52] 30.1 µM | [53] 22.3 µM | [54] 69.3 µM
31 µM: [47]

CCOC(=O)C1(C(=O)OCC)CCCN1C(=O)[C@H](CNC(=O)OC(C)(C)C)NC(=O)OCc1ccccc1
inactive: [2] > 100 µM | [3] > 100 µM | [4] > 100 µM | [5] > 100 µM | [6] > 100 µM | [7] > 100 µM | [8] > 100 µM | [9] > 100 µM | [10] > 100 µM | [12] > 100 µM | [13] 51.6 µM | [14] > 100 µM | [15] > 100 µM | [16] > 100 µM | [17] > 100 µM | [18] > 100 µM | [19] 79.6 µM | [20] > 100 µM | [22] > 100 µM | [23] > 100 µM | [55] > 100 µM | [24] 17.4 µM | [25] > 100 µM | [26] > 100 µM | [27] > 100 µM | [28] > 100 µM | [29] > 100 µM | [30] > 100 µM | [32] > 100 µM | [33] > 100 µM | [34] > 100 µM | [35] > 100 µM | [36] > 100 µM | [37] 67.6 µM | [38] > 100 µM | [39] > 100 µM | [40] 31.3 µM | [41] 32.8 µM | [42] > 100 µM | [43] 27.8 µM | [44] > 100 µM | [46] > 100 µM | [48] > 100 µM | [57] > 100 µM | [49] > 100 µM | [50] > 100 µM | [58] > 100 µM | [51] > 100 µM | [52] > 100 µM | [53] > 100 µM | [54] > 100 µM
> 100 µM: [47]
